Results published in ChEMBL document CHEMBL1140531, “New functional assay of P-glycoprotein activity using Hoechst 33342” (Bioorg Med Chem, 2007).

Legend:
[1] = Cytotoxicity against human A2780/ADR cells after 72 hrs by MTT assay; type: functional, cell-based
[2] = test system: A2780; assay: Cytotoxicity against human A2780 cells after 72 hrs by MTT assay; type: functional, cell-based; settings: A2780, 72 h
[3] = target: T1, ATP-dependent translocase ABCB1 (Homo sapiens, UniProt P08183); assay: Inhibition of P-glycoprotein expressed in A2780/ADR cells by calcein AM assay; type: cell-based
T1 sequence (P08183 whole entry): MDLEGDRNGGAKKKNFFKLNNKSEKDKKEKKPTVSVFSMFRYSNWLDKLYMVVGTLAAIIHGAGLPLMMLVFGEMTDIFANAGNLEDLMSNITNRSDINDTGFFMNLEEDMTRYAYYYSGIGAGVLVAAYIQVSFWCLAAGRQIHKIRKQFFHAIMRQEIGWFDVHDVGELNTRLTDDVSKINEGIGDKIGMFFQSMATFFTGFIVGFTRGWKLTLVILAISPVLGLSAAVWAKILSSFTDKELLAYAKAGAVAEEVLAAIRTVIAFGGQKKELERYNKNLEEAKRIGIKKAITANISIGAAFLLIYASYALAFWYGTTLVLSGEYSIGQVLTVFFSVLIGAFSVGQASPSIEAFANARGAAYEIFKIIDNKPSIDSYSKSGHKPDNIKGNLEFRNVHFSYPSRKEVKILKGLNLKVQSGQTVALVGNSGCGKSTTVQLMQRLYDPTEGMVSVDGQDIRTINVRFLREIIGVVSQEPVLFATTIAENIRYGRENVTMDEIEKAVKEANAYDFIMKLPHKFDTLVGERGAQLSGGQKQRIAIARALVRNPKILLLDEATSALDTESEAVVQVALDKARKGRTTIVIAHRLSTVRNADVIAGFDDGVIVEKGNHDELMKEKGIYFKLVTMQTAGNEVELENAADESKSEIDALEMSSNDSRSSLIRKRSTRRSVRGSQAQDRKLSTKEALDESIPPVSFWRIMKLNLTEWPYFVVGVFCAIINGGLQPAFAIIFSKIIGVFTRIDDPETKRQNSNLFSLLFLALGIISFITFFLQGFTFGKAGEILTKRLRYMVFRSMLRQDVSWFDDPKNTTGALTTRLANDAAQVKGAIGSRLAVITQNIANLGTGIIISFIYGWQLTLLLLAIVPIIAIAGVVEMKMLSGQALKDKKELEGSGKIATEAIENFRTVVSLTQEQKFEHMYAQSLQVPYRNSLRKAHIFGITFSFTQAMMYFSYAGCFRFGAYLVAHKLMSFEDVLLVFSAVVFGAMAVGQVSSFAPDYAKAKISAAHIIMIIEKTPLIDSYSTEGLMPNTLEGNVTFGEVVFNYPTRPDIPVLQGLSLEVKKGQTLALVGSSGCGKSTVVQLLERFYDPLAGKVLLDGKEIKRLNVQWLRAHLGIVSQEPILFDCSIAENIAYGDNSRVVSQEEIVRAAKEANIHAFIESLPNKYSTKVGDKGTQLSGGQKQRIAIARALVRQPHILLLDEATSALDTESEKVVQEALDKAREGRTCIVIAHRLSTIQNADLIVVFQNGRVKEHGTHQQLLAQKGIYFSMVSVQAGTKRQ

[4] = target: T1, ATP-dependent translocase ABCB1; assay: Inhibition of P-glycoprotein expressed in MDCK-MDR1 cells by calcein AM assay; type: cell-based
[5] = target: T1, ATP-dependent translocase ABCB1; assay: Inhibition of P-glycoprotein by Hoechst assay

**Q.** Which results are given for `COC(=O)c1ccccc1-c1c2ccc(=N)cc-2oc2cc(N)ccc12` [RHODAMINE123]?
**A.** IC50 [1]: 123000 nM; IC50 [2]: 1910 nM

**Q.** For `COC(=O)[C@H]1[C@H]2C[C@@H]3c4[nH]c5cc(OC)ccc5c4CCN3C[C@H]2C[C@@H](OC(=O)c2cc(OC)c(OC)c(OC)c2)[C@@H]1OC` [RESERPINE], which IC50 [3] is on record?
**A.** 3240 nM

**Q.** And the Hill coefficient [4]?
**A.** 1.88

**Q.** What about the IC50 [5] of the same molecule?
**A.** 3020 nM

**Q.** For `O=C(Nc1ccccc1C(=O)Nc1ccc(CCN2CCc3ccccc3C2)cc1)c1cnc2ccccc2c1`, which IC50 [3] is on record?
**A.** 490 nM

**Q.** What about the Hill coefficient [4] of the same molecule?
**A.** 2.42

**Q.** And the IC50 [5]?
**A.** 355 nM

**Q.** For `COc1cccc2c1C(=O)c1c(O)c3c(c(O)c1C2=O)C[C@@](O)(C(=O)CO)C[C@@H]3O[C@H]1C[C@H](N)[C@H](O)[C@H](C)O1` [DOXORUBICIN], which IC50 [1] is on record?
**A.** 13500 nM

**Q.** What about the IC50 [2] of the same molecule?
**A.** 93.3 nM

**Q.** With `COC(=O)C1=C(C)NC(C)=C(C(=O)OCCN(C)Cc2ccccc2)C1c1cccc([N+](=O)[O-])c1` (stereo not drawn) [NICARDIPINE] as the molecule, how does the Hill coefficient [4] read?
**A.** 2.44

**Q.** Which IC50 [1] does the source give for `CC[C@]1(O)C[C@@H]2CN(CCc3c([nH]c4ccccc34)[C@@](C(=O)OC)(c3cc4c(cc3OC)N(C)[C@H]3[C@@](O)(C(=O)OC)[C@H](OC(C)=O)[C@]5(CC)C=CCN6CC[C@]43[C@@H]65)C2)C1` [VINBLASTINE] here?
**A.** 2820 nM

**Q.** And the IC50 [2]?
**A.** 61.7 nM

**Q.** And the Hill coefficient [4]?
**A.** 2.06

**Q.** Which IC50 [3] does the source give for `COc1cc2c(cc1OC)CN(CCc1ccc(NC(=O)c3ccccc3NC(=O)c3ccccc3)cc1)CC2` here?
**A.** 851 nM

**Q.** What about the Hill coefficient [4] of the same molecule?
**A.** 2.01

**Q.** And the IC50 [5]?
**A.** 513 nM

**Q.** With `CC(=O)[C@H]1CC[C@H]2[C@@H]3CCC4=CC(=O)CC[C@]4(C)[C@H]3CC[C@]12C` [PROGESTERONE] as the molecule, how does the Hill coefficient [4] read?
**A.** 1.31

**Q.** Which results are given for `CC(=O)O[C@@]12CO[C@@H]1C[C@H](O)[C@@]1(C)C(=O)[C@H](O)C3=C(C)[C@@H](OC(=O)[C@H](O)[C@@H](NC(=O)OC(C)(C)C)c4ccccc4)C[C@@](O)([C@@H](OC(=O)c4ccccc4)[C@H]21)C3(C)C` [DOCETAXEL]?
**A.** IC50 [1]: 87.1 nM; IC50 [2]: 4.9 nM

**Q.** For `CCOc1ccc(-c2nc3cc(-c4nc5cc(N6CCN(C)CC6)ccc5[nH]4)ccc3[nH]2)cc1`, which IC50 [1] is on record?
**A.** 38000 nM

**Q.** And the IC50 [2]?
**A.** 1910 nM

**Q.** With `O=C(Nc1ccc(CCN2CCc3ccccc3C2)cc1)Nc1ccccc1NC(=O)c1cnc2ccccc2c1` as the molecule, how does the IC50 [3] read?
**A.** 813 nM

**Q.** What about the Hill coefficient [4] of the same molecule?
**A.** 2.6

**Q.** For `COc1ccc([C@@H]2Sc3ccccc3N(CCN(C)C)C(=O)[C@@H]2OC(C)=O)cc1` [DILTIAZEM], which Hill coefficient [4] is on record?
**A.** 1.15

**Q.** What does the source list for `COc1cccc2c1C(=O)c1c(O)c3c(c(O)c1C2=O)C[C@@](O)(C(C)=O)C[C@@H]3O[C@H]1C[C@H](N)[C@H](O)[C@H](C)O1` [DAUNORUBICIN]?
**A.** IC50 [1]: 18600 nM; IC50 [2]: 117 nM

**Q.** What does the source list for `COc1ccc(C(=O)Nc2ccccc2C(=O)Nc2ccc(CCN3CCc4cc(OC)c(OC)cc4C3)cc2)cc1OC`?
**A.** IC50 [3]: 339 nM; Hill coefficient [4]: 2.89; IC50 [5]: 331 nM

**Q.** With `COc1cc2c(c(OC)c1OC)-c1ccc(OC)c(=O)cc1[C@@H](NC(C)=O)CC2` [COLCHICINE] as the molecule, how does the IC50 [1] read?
**A.** 372 nM

**Q.** And the IC50 [2]?
**A.** 22.9 nM

**Q.** With `Cc1ccc(NC(=O)c2ccc(CN3CCN(C)CC3)cc2)cc1Nc1nccc(-c2cccnc2)n1` [IMATINIB] as the molecule, how does the Hill coefficient [4] read?
**A.** 1.18
